Test results reported in paper PMC2765124 (Drug and alcohol dependence, 2009).
Entries after “also recorded” stand apart in the source; their conditions may differ.

Columns and labels:
[1] = system: acetic acid-induced abdominal stretching in male ICR mice; experiment: acetic acid stretching test; type: in vivo, mouse; conditions: for antinociceptive effect given alone (abdominal stretching): 1 h before acetic acid; for blockade of the antinociceptive effects of Δ9-THC by THCV: THCV 50 mg/kg s.c. with Δ9-THC 3.0 mg/kg s.c.; for effect on abdominal stretching given alone: 3 mg/kg i.p.; for blockade of the antinociceptive effects of Δ9-THC: antagonist 3 mg/kg i.p. 10 min before Δ9-THC 3 mg/kg s.c.
[2] = system: locomotor activity of male ICR mice; experiment: spontaneous locomotor activity; type: in vivo, mouse; conditions: for % Time Immobile / Total Distance Traveled: 60 min before, 20 min, mean ± SEM
CB1 receptor = CB1 receptor (Rattus norvegicus, UniProt P20272); experiment: cannabinoid receptor binding, displacement of [3H]-CP-55,940 from whole brain
Sequence of CB1 receptor (P20272 whole entry): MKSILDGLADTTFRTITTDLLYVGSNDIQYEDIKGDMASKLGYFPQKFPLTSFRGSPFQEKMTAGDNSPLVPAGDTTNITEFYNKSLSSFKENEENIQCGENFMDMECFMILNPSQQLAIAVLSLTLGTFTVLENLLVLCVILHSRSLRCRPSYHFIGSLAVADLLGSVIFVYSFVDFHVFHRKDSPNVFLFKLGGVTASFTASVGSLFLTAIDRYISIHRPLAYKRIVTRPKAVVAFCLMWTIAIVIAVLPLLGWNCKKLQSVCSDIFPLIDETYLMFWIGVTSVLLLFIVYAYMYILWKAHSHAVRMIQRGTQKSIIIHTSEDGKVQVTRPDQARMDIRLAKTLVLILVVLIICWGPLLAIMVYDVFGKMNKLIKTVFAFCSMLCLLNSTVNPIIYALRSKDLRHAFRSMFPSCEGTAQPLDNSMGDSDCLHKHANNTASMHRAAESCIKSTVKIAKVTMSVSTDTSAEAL

Compound: CCCCCc1cc(O)c2c(c1)OC(C)(C)[C@@H]1CCC(C)=C[C@@H]21 [Δ^9-THC, Δ^9-tetrahydrocannabinol]
- ED50 ([1]; Mus musculus, read-out: ED50, suppression of abdominal stretching): 1.1 mg/kg
- minimal (required) dose that produced antinociception ([1]; s.c.): 1 mg/kg
- % Time Immobile ([2]; 1.0 mg/kg s.c.): 11.2 ± 2.2%
- Total Distance Traveled ([2]; 1.0 mg/kg s.c.): 41.79 ± 2.63 m
- % Time Immobile ([2]; 3.0 mg/kg s.c.): 21.5 ± 5.0%
- Total Distance Traveled ([2]; 3.0 mg/kg s.c.): 43.59 ± 4.70 m
- effect on locomotor activity ([2]; 3 mg/kg s.c., 60 min pretreatment, compared to vehicle): did not significantly interfere with locomotor activity
- % Time Immobile ([2]; 10.0 mg/kg s.c.): 37.6 ± 9.2%
- Total Distance Traveled ([2]; 10.0 mg/kg s.c.): 45.86 ± 7.76 m
- % Time Immobile ([2]; 50.0 mg/kg s.c.): 49.0 ± 6.8 %
- Total Distance Traveled ([2]; 50.0 mg/kg s.c.): 35.34 ± 3.61 m
- effect on mobility ([2]; doses less than 50 mg/kg s.c.): did not impair mobility

Compound: CCCCCc1cc(O)c2c(c1)OC(C)(C)c1ccc(C)cc1-2 [CBN, cannabinol]
- antinociceptive effect given alone (abdominal stretching) ([1]; 20 mg/kg s.c.): not at 20 mg/kg
- antinociceptive effect given alone (abdominal stretching) ([1]; 50 mg/kg s.c.): significant antinociceptive effects; also recorded: significantly suppressed the stretching response
- minimal (required) dose that produced antinociception ([1]; s.c.): 50 mg/kg
- effect on locomotor activity ([2]; 50 mg/kg s.c., 60 min before recording): failed to inhibit locomotor activity; also recorded: did not affect mobility
- % Time Immobile ([2]; 50.0 mg/kg s.c.): 17.6 ± 2.9%
- Total Distance Traveled ([2]; 50.0 mg/kg s.c.): 39.02 ± 7.75 m
- affinity at the CB1 receptor, fold lower than the affinity of Δ9-THC (CB1 receptor): 2–3 fold

Compound: CCCCCc1cc(O)c2c(c1)OC(C)(CCC=C(C)C)C=C2 (centres unmarked) [CBC, cannabichromene]
- antinociceptive effect given alone (abdominal stretching) ([1]; high doses, s.c.): did not produce antinociceptive effects

Compound: C=C(C)[C@@H]1CCC(C)=C[C@H]1c1c(O)cc(CCCCC)cc1O [CBD, cannabidiol]
- antinociceptive effect given alone (abdominal stretching) ([1]; high doses, s.c.): did not produce antinociceptive effects

Compound: CCCc1cc(O)c2c(c1)OC(C)(C)[C@@H]1CC=C(C)C[C@@H]21 [THCV, Δ^8-tetrahydrocannabivarin]
- antinociceptive effect given alone (abdominal stretching) ([1]; 50 mg/kg s.c.): had no affect on the frequency of stretching behavior; also recorded: failed to elicit antinociceptive effects; also recorded: had no effects on its own
- blockade of the antinociceptive effects of Δ9-THC by THCV [1]: blocked the antinociceptive effects of Δ^9-THC
- blockade of the antinociceptive effects of Δ9-THC by THCV ([1]; listed as THC-V): significantly antagonized the antinociceptive effects

Compound: SR144528
- effect on abdominal stretching given alone [1]: did not significantly affect abdominal stretching behavior; also recorded: Neither

Compound: Cc1c(C(=O)NN2CCCCC2)nn(-c2ccc(Cl)cc2Cl)c1-c1ccc(Cl)cc1 [rimonabant]
- effect on abdominal stretching given alone [1]: did not significantly affect abdominal stretching behavior; also recorded: Neither
- blockade of the antinociceptive effects of CBN ([1]; antagonist 3 mg/kg i.p. 10 min before CBN 50 mg/kg s.c.): blocked by rimonabant; also recorded: significantly blocked the antinociceptive effects
- blockade of the antinociceptive effects of Δ9-THC [1]: blocked the antinociceptive effects
- blockade of the antinociceptive effects of Δ9-THC ([1]; listed as Rimonabant): significantly blocked
